Experimental data from patent publication US12226455B2, “Medical composition for treating cardiac wasting and cachexia” (RELAXERA Pharmazeutische GmbH & Co. KG, priority 2019, dated 2025).
Marks after values point to notes of the source that are not given here.

Key:
[1] = test system: patients with advanced cancer in the hospice setting; assay: Level of general wellbeing relative to baseline on a seven-level Likert scale (clinical study); assay type: in vivo, human; details: 25 micrograms/kg body weight/day, n=20
Method: (§1) 30 patients with advanced cancer in the hospice setting are included randomized and double-blind in a clinical study to a 10-day continuous sc. or iv. infusion of either synthetic human relaxin-2 (25 micrograms/kg body weight/day) (n=20) or placebo (n=10). The following exploratory clinical end-points are assessed at baseline and during treatment (day 3 and day 10): • 1. Patients are asked to report their current level of both dyspnea and general wellbeing relative to baseline using seven-level Likert scales. • 2. In the context of this study, ability of self-care is defined as ability to perform the measures of personal daily hygiene (washing, tooth-brushing) without help. • 3. Congestion is assessed as percentage of patients showing ankle edema or rales upon auscultation. • 4. Plasma levels of NT-proBNP (N-terminal fragment of pro-brain natriuretic peptide), a biomarker of cardiac decompensation, are determined. • 5. The four-meter gait speed (4MGS) is measured.

[2] = test system: NT-proBNP; assay: Plasma levels of NT-proBNP, biomarker of cardiac decompensation (clinical study); assay type: in vivo, human; details: n=20; for Plasma NT-proBNP, median: 25 micrograms/kg body weight/day
Method: as §1

[3] = test system: patients with advanced cancer in the hospice setting; assay: Ability of self-care (personal daily hygiene without help), yes-or-no level (clinical study); assay type: in vivo, human; details: n=20
Method: as §1

[4] = continuous subcutaneous infusion over 24 weeks; cited from earlier work
[5] = test system: patients with advanced cancer in the hospice setting; assay: Four-meter gait speed (4MGS) (clinical study); assay type: in vivo, human; details: n=20
Method: as §1

[6] = test system: patients with advanced cancer in the hospice setting; assay: Level of dyspnea relative to baseline on a seven-level Likert scale (clinical study); assay type: in vivo, human; details: n=20
Method: as §1

[7] = test system: patients with advanced cancer in the hospice setting; assay: Congestion: ankle edema or rales upon auscultation, four-level scale (clinical study); assay type: in vivo, human; details: n=20
Method: as §1

[8] = test system: hospice patients with advanced, incurable cancer; assay: Overall conclusion of the 10-day clinical study in hospice patients; assay type: in vivo, human; details: continuous treatment for 10 days
Method: as §1

[9] = Day 3, 25 micrograms/kg body weight/day
[10] = Day 10, 25 micrograms/kg body weight/day
[11] = Day 3, 25 micrograms/kg body weight/day continuous sc. or iv. infusion

human relaxin-2
Level of general wellbeing: markedly or moderately improved, absolute number of patients ([1]; Day 3): 9
Level of general wellbeing: markedly or moderately improved, percentage of patients ([1]; Day 3): (45)# %
Level of general wellbeing: markedly or moderately worsened, absolute number of patients ([1]; Day 3): 2
Level of general wellbeing: markedly or moderately worsened, percentage of patients ([1]; Day 3): (10)# %
Level of general wellbeing: markedly or moderately improved, absolute number of patients ([1]; Day 10): 11
Level of general wellbeing: markedly or moderately improved, percentage of patients ([1]; Day 10): (55)# %
Level of general wellbeing: markedly or moderately worsened, absolute number of patients ([1]; Day 10): 1
Level of general wellbeing: markedly or moderately worsened, percentage of patients ([1]; Day 10): 5%
Plasma NT-proBNP, median (IQR) ([2]; Baseline): 3438 (597-4175) pg/ml
Plasma NT-proBNP, median ([2]; Day 3): 1813 pg/mL
Plasma NT-proBNP, median ([2]; Day 10): 778 pg/mL
Ability of self-care, absolute number of patients ([3]; Baseline): 5
Ability of self-care, percentage of patients ([3]; Baseline): 25%
Ability of self-care, absolute number of patients [3, 9]: 7
Ability of self-care, percentage of patients [3, 9]: 35%
Ability of self-care, absolute number of patients [3, 10]: 17
Ability of self-care, percentage of patients [3, 10]: (85)* %
Physiological changes under relaxin infusion [4]: sustained physiological changes which closely mimicked those seen in human pregnancy
Four-meter gait speed, median ([5]; Baseline): 0.56 m/s
Unable to walk 4 m, % of patients ([5]; Baseline): 35%
Unable to walk 4 m, absolute number of patients ([5]; Baseline): 7
Four-meter gait speed, median [5, 9]: 0.66 m/s
Unable to walk 4 m, % of patients [5, 9]: 25%
Unable to walk 4 m, absolute number of patients [5, 9]: 5
Four-meter gait speed, median [5, 10]: 0.86* m/s
Unable to walk 4 m, % of patients [5, 10]: (15)^# %
Unable to walk 4 m, absolute number of patients [5, 10]: 3
Level of dyspnea: markedly or moderately improved, absolute number of patients [6, 11]: 8
Level of dyspnea: markedly or moderately improved, percentage of patients [6, 11]: (40)^# %
Level of dyspnea: markedly or moderately worsened, absolute number of patients [6, 9]: 1
Level of dyspnea: markedly or moderately worsened, percentage of patients [6, 9]: (5)^# %
Level of dyspnea: markedly or moderately improved, absolute number of patients [6, 10]: 12
Level of dyspnea: markedly or moderately improved, percentage of patients [6, 10]: (60)^# %
Level of dyspnea: markedly or moderately worsened, absolute number of patients [6, 10]: 1
Level of dyspnea: markedly or moderately worsened, percentage of patients [6, 10]: (5)^# %
Congestion: moderate or severe edema, absolute number of patients ([7]; Baseline): 15
Congestion: moderate or severe edema, percentage of patients ([7]; Baseline): (75) %
Congestion: moderate or severe rales, absolute number of patients ([7]; Baseline): 16
Congestion: moderate or severe rales, percentage of patients ([7]; Baseline): (80) %
Congestion: moderate or severe edema, absolute number of patients [7, 9]: 10
Congestion: moderate or severe edema, percentage of patients [7, 9]: (50) %
Congestion: moderate or severe rales, absolute number of patients [7, 9]: 8
Congestion: moderate or severe rales, percentage of patients [7, 9]: (40)^# %
Congestion: moderate or severe edema, absolute number of patients [7, 10]: 6
Congestion: moderate or severe edema, percentage of patients [7, 10]: (30)^# %
Congestion: moderate or severe rales, absolute number of patients [7, 10]: 5
Congestion: moderate or severe rales, percentage of patients [7, 10]: (25)^# %
Clinical signs of cardiac decompensation (congestion, dyspnea, circulating NT-proBNP) [8]: ameliorates clinical signs of cardiac decompensation
Clinical status of hospice patients [8]: markedly improves the clinical status
